Earlier results in US12377108B2 (Curantis UG, priority 2018, dated 2025).

How the values were obtained:
[1] = oral administration; first pass hepatic metabolism
[2] = of the activity of Δ9-THC

Row | Structure (SMILES) | oral bioavailability [1] | activity relative to Δ9-THC [2]
1 | C=C(C)[C@@H]1CCC(C)=C[C@H]1c1c(O)cc(CCCCC)cc1O [CBD, Cannabidiol] | < 5% | 
2 | CCCCCc1cc(O)c2c(c1)OC(C)(C)c1ccc(C)cc1-2 [CBN, Cannabinol] |  | 10%
